Data on 40 compounds can be found in PubChem BioAssay AID849 (SRMLSC, 2007).

Calls of active or inactive are those of the source. The rule behind the calls is not given here.

The test has as its system Saccharomyces cerevisiae lifespan shortening, growth inhibition. The test is described as follows: yeast lifespan shortening compounds, dose response (AID 849).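 Note: yeast growth read as optical density after two days at 30 degrees C.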
For `COc1cccc(C(=O)O/N=C(\N)Cc2ccc(Cl)cc2)c1`, the IC50 (in general, the point on the concentration scale where inhibition reaches its midpoint) was 4.09 µM.
For `COC1=C(c2ccccc2)C(=O)c2ccccc2C1=O` the value was 16.2 µM; for `CC1(C)C(C=C(Cl)Cl)C1C(=O)Nc1ccc([N+](=O)[O-])cc1` (stereo not given), 51.3 µM.
With `Cc1ccc(/C(N)=N/OC(=O)c2ccc(C)cc2Cl)cc1`, the IC50 is 14.8 µM.
For `Cc1ccc(N=Cc2cccc(O)c2O)c(C)c1` the value was 13.1 µM.
Next, `CCOc1ccccc1C1CC(c2ccc(Br)cc2)Nc2nc(N)nn21` (stereo not given): > 100 µM (inactive); `Cc1cc(O)c(/C=N/Nc2ccccc2)c(=O)o1`: 25.2 µM.
Consider `C(=N\c1ncnc2sccc12)/NOCc1ccccc1`, for which the IC50 is 23.2 µM.
Next, `Oc1ccc(N=Nc2cccc(Cl)c2)cc1C=Nc1ccc(N2CCOCC2)cc1`: > 100 µM (inactive).
Regarding `Oc1c(Cl)cc(Cl)c2c1NCCC2`, the IC50 was 17.4 µM.
Next, `Cc1c(N=Cc2cc(Br)cc(Br)c2O)cccc1C(=O)O`: 23.7 µM; `Nc1nonc1C(=O)NCCN=Cc1cc(Cc2ccccc2)cc(Br)c1O`: > 100 µM (inactive).
For `NNC(=O)c1cccc(COc2ccc3c(c2)CCC3)c1` the value was 17.3 µM; for `CCCc1cc(-c2n[nH]c(=S)n2C(C)c2ccccc2)cs1` (stereo not given), > 100 µM (inactive); for `O=C(CC(O)(C(F)(F)F)C(F)(F)F)Nc1ccc(Cl)c(Cl)c1`, 12 µM.
In the case of `CN1CCN(CC(=O)N2CCn3c4c(c5cc(C6CCCCC6)ccc53)CCCC42)CC1` (stereo not given), the IC50 was > 100 µM (inactive).
For `COc1ccc(C(=O)NC(=S)NNC(=O)c2cnccn2)cc1` the value was 16.3 µM; for `COC1=C(N)C(=O)c2nc(-c3nc(C(=O)O)c(C)c(-c4ccc(OC)c(OC)c4O)c3N)ccc2C1=O`, 0.212 µM; for `O=C1OCC(CO)(CO)N=C1NNc1ccc(Cl)c(Cl)c1`, 2.89 µM.
As for `O=[N+]([O-])c1ccc(O)c(/C=N/Nc2ccccn2)c1`, the IC50 was 31 µM.
For `CCN1/C(=C/c2ccc3ccc(C)cc3[n+]2CC)Sc2ccccc21` the value was 21.4 µM; for `CC1CCC2(CC1)NC(=S)N(c1ccccc1)N2` (stereo not given), 23.6 µM; for `CCC(C)N1CC23C=CC(O2)C(C(=O)OC)C3C1=O` (stereo not given), > 100 µM (inactive).
Regarding `O=C(O)CCSc1nnc(-c2ccccc2)n1-c1ccccc1`, the IC50 is > 100 µM (inactive).
Consider `CCCC1COC(Cn2cncn2)(c2ccc(C)cc2)O1` (stereo not given), for which the IC50 was 3.94 µM.
For `Cc1ccc(CNC(=O)CS(=O)Cc2nc(-c3cccs3)oc2C)cc1` (stereo not given) the value was > 100 µM (inactive).
For `CCN1/C(=C/c2ccc3cc(C)ccc3[n+]2CC)Sc2ccccc21` the value was 4.48 µM.
With `CCC(=C(c1ccc(OC)cc1)c1ccc(OC)cc1)c1cn(CC(O)CN2CCN(C)CC2)c2ccccc12` (stereo not given), the IC50 was 36.9 µM.
Consider `COc1ccc2cc(C(=O)O)ccc2c1`, for which the IC50 is 13.9 µM.
Next, `Cc1ccc(C)c(/C=C/C(=O)c2ccccc(=O)c2O)c1`: 6.4 µM; `CCOC(=O)C1CCCCN1C(=O)CCc1c(C)nc2cc(-c3ccccc3)nn2c1C` (stereo not given): > 100 µM (inactive).
Regarding `N#CCSc1nc2ccccc2c2nc3ccccc3n12`, the IC50 is 29.3 µM.
With `COc1ccc(/C=C2/C(=O)ON=C2c2ccccc2)cc1OC`, the IC50 is 33.3 µM.
For `N#C/C(=C/c1cn(-c2ccccc2)nc1-c1cccc(OCc2ccc(F)cc2)c1)C(=O)NCCCn1ccnc1`, the IC50 was > 100 µM (inactive).
Consider `CCSc1ncc(/C=N/Nc2ccc(Cl)cc2)n1C`, for which the IC50 is 36.7 µM.
Next, `Cc1ccc(-c2nn3c(C)nnc3s2)cc1NC(=O)c1ccc(OC(C)C)cc1`: > 100 µM (inactive).
For `Cc1cccc(Nc2nc(-c3ccccn3)cs2)n1` the value was 20.3 µM; for `Nc1nc2sc3c(c2c(=O)s1)CCCC3`, > 100 µM (inactive); for `Cc1ccc(Oc2nc(CN3CCOCC3)nc3sc4c(c23)CCC(C)C4)cc1C` (stereo not given), 26.1 µM.
Take `Cc1ccc(C(NC(=O)C(C)C)c2cc([N+](=O)[O-])c3cccnc3c2O)cc1` (stereo not given): the IC50 is 11.4 µM.
